# Laboratory results reported in US6194465A, “Benzamide therapeutics for the treatment of inflammatory bowel disease” (priority 1999, dated 2001).
# “Also recorded” adds a separate entry of the source.
# Tests used:
# [1] = test system: Myeloperoxidase (MPO) activity; experiment: MPO activity of colon tissue in TNBS model (IV dosing); type: in vivo, Male Sprague-Dawley rats
# Procedure: Male Sprague-Dawley rats (200-250 g) were housed in standard cages (2 per cage) and fed rat chow and tap water ad libitum. After an overnight fast, rats were brought into the laboratory and randomized into treatment groups. Colitis was induced by intrarectal administration of 0.5 ml of TNBS solution (50 mg/kg in 50% ethanol) using a 1 ml syringe attached to a 5 cm polyethylene catheter. Control animals received saline (0.9%) or a 1 % methyl cellulose suspension at identical time points.
# Myeloperoxidase ("MPO") activity is measured as an index of the intensity of the inflammatory response. In order to determine the MPO activity, a blind study of 300 mg samples of colon tissue were analyzed. This assay uses the spectrophotometric method of Castro et al.
# For PO (oral) dosing, Compound A was administered by oral gavage 30 mg/kg as a 1% carboxy methyl cellulose ("CMC") suspension 1 hour prior to the administration of TNBS. Control rats were given CMC only. For IV (intravenous) dosing, Compound A was administered 30 mg/kg by tail vein injection in a 75% PEG/25 % water solution 1 hour prior to administration of TNBS. Control rats were given an injection of 75% PEG/25 % water only. Six rats were dosed for each route of administration.
# MPO activity measurements were performed only for samples from the IV administration.
# [2] = test system: TNBS-induced colonic tissue damage; experiment: TNBS model, dosing after TNBS treatment (morphology, MPO, wet weight); type: in vivo, rats
# Procedure: As a follow-on set of experiments we investigated the effects of multiple doses of Compound A administered after TNBS treatment.
# Experimental conditions were similar to those described above except that rats were given either Compound A (30 mg/kg PO) or vehicle, administered 4, 8 and 24 hours after TNBS treatment for at total of 3 doses.
# In another series of experiments to investigate the duration of action of Compound A was designed to advance previous observations and determine whether a single dose of 90 mg/kg po Compound A given either 4, 8, or 24 hrs after the TNBS enema would reduce the colonic damage.
# Experimental conditions were similar to those described above except that rats were given a single large dose of Compound A (90 mg/kg PO) or vehicle either 4, 8 or 24 hours after TNBS treatment.
# [3] = Plasma concentration time course after oral administration; type: in vivo, rats
# [4] = test system: human brain cell aggregates; experiment: TNF-α induced apoptosis in human brain cell aggregates; type: cell-based; details: compound 1 hour prior to TNF-α, 48 h, read-out: lowest concentration shown to protect against TNF-α induced apoptosis
# Procedure: This test is used to evaluate the potential of Compound A to prevent TNF-α induced apoptosis.
# Compound A was evaluated in an in vitro model of TNF-α induced toxicity (see Pulliam et al. J. Neurosci. Res. 21:521-530 (1998)). In this model, human brain cell aggregates from fetal tissue were treated with TNF-α which caused an apoptotic cell death. Brain cell aggregates prepared from 1 brain were incubated for 10-12 days before experimentation. Aggregates were weighed out (100 mg/flask) and aliquoted into 10 mL flasks. TNF-α was used at a concentration of 1 ng. Compound A was added 1 hour prior to the TNF-α. Experiments included untreated brain aggregates, TNF-α-treated brain aggregates, TNF-α-+test compound treated aggregates and test compound treated aggregates. After TNF-α was added, aggregates were incubated for an additional 48 h. After this time, brain aggregates were centrifuged for 5 min at 500 rpm. The supernatant was removed and the pellet was lysed for determination of programmed cell death. (Boeringer Mannheim Cell Death Kit ELISA).
# DSS-induced colitis [5] = experiment: Dose-response in the Mouse Dextran Sulfate (DSS) model; type: in vivo
# Procedure: To determine the dose-response relationship of Compound A in the DSS Mouse Model, the following procedure was used.
# Experimental conditions and statistical analyses were the same as the Mouse Dextran Sulfate IBD Model, except four groups of mice (n=8-10/group) were used. Animals were dosed orally with either Compound A (3, 10 or 30 mg/kg) or vehicle alone. In addition, the following procedure was introduced to evaluate the histology in the animals:
# 5-6 slices/segment with 15-18 total pieces/colon
# Score for extent of damage: 0=1-25% involvement, 1=26-50% involvement,
# 0=intact crypt, 1=loss of 1/3 crypt, 2=loss of 2/3 crypt, 3=loss of entire crypt with surface epithelium intact, 4=loss of entire crypt and erosion of surface epithelium
# 0=normal, 1=focal inflammatory cell infiltrate including PMNs, 2=inflammatory cell infiltration, gland dropout and crypt abscess, 3=mucosal ulceration
# Single, evaluator (qualified pathologist) blinded to the treatment conditions.
# [6] = PK parameter estimates, 30 mg/kg po (Table 1); type: in vivo, rats; details: additional series of bioavailability experiments
# Procedure: The bioavailability of compound N is depicted in FIG. 10 as well. |(NRTs Dosed 30 mg/kg po in 1% Methyl Cellulose, n = 3 rats/NRT)
# DSS-induced colitis [7] = experiment: Mouse Dextran Sulfate (DSS) IBD model; type: in vivo, Swiss-Webster mice
# Procedure: Another model used for screening candidate IBD-treating compounds is the Dextran Sulfate ("DSS") model. Similar to the TNBS model, DSS induced colitis is widely used as a screening tool for IBD therapeutics. When administered orally, DSS induces IBD-like symptoms in Swiss-Webster mice. This model is used to determine the effectiveness of compounds of this invention when such compounds are administered orally (p.o.)
# Individually housed 30-40 g male Swiss-Webster mice (B & K Universal, Fremont, Calif.) received 3% DSS (Sigma Chemicals, St. Louis, Mo.) in their drinking water for 7 days. All animals received food and water ad libitum.
# Two groups of mice were dosed orally with either Compound A in a dosing vehicle (1% methyl cellulose, dose range of 10 mg/kg to 30 mg/kg) or dosing vehicle alone (control).
# Clinical signs of colitis were assessed by a disease activity index ("DAI") consisting of changes in stool characteristics, fecal occult bleeding and body weight loss. The DAI is very similar to the Crohn's Disease Activity Index used in clinical trials to evaluate new agents to prevent/treat IBD. The DAI data were analyzed using Proc Anova in SAS with a Bonferoni post-hoc analysis, and Model 108 in WinNonlin™ (Professional Version 1.5, Scientific Consulting, Apex, NC) for the ED50 and Emax values. The wet weight and myeloperoxidase ("MPO") data (collected only on Day 7) were analyzed by Proc TTest in SAS. MPO is a marker for neutrophil infiltration.
# Stool Characteristic: 0=normal, 2=loose and 4=diarrhea
# Fecal Occult Blood: 0=negative, 2=positive, 4=gross bleeding
# Two strips of colonic tissue/mouse
# MPO activity by spectrophotometric assay
# [8] = 30 mg/kg PO at 4, 8 and 24 hours after TNBS
structure (smiles),measurement,setting,value
"CC(=O)Nc1ccc(C(=O)NC(C)(C)C)cc1 [Compound A, N-tert-butyl-4-acetamidobenzamide]",protection from TNBS insult as measured by MPO activity (in words),[1]; IV,provided protection from the TNBS insult
same,MPO Activity,"[1]; IV treatment, 30 mg/kg, TNBS model",1.77 ± 0.53 units/mg
same,"MPO activity, 3 doses after TNBS (in words)",[2]; [8],decrease in MPO activity
same,"colonic tissue damage, 3 doses after TNBS",[2]; [8],significantly reduced
same,"tissue wet weight, 3 doses after TNBS (in words)",[2]; [8],reduction in tissue wet weight
same,"inflammatory damage, single dose after TNBS","[2]; 90 mg/kg po, 4, 8 or 24 hours after TNBS",prevents inflammatory damage; also recorded: less efficacy than the 3 dose (30 mg/kg) oral regimen
same,lower plasma levels in animals dosed 4 hours before TNBS,"[3]; > 6 hours after TNBS, vs dosing 1 hour before",approximately 30%
same,time after which plasma concentrations begin to decline,[3]; following oral administration,> 7 h
same,Tmax,"[3]; rat, plasma, following oral administration, read-out: time of peak plasma concentration",3 to 4 h
same,minimal effective concentration,[4],0.01 µM
same,"protective effect, significance by day",DSS-induced colitis [5]; oral,"statistically significant on days 3, 4, 5 and 7"
same,"DAI score, protective effect (in words)","DSS-induced colitis [5]; oral, 3, 10 or 30 mg/kg",marked dose-dependent protective effect
same,"DAI score, significance by dose","DSS-induced colitis [5]; oral, 3, 10 or 30 mg/kg",statistically significant at 30 mg/kg
same,"MPO values (in words), dose-response study","DSS-induced colitis [5]; oral, 3, 10 or 30 mg/kg",the protection was not statistically significant
same,"wet weight (in words), dose-response study","DSS-induced colitis [5]; oral, 3, 10 or 30 mg/kg",the protection was not statistically significant
same,bioavailability (in words),[6],excellent bioavailability
same,MPO values (in words),DSS-induced colitis [7]; Day 7,the protection was not statistically significant
same,wet weight (in words),DSS-induced colitis [7]; Day 7,the protection was not statistically significant
same,protective effect against DSS-induced colitis,"DSS-induced colitis [7]; oral, 10 mg/kg to 30 mg/kg",showed protective effect against DSS-induced colitis
same,significance of protective effect by day,"DSS-induced colitis [7]; oral, 10 mg/kg to 30 mg/kg","statistically significant on days 3, 4, 5 and 7"
same,estimated ED50,"DSS-induced colitis [7]; oral, DSS model, WinNonlin",approximately 15 mg/kg
same,estimated Emax,"DSS-induced colitis [7]; oral, DSS model, WinNonlin",~80 % protection
